The values that follow come from US8168800B2, “Aβ-binding small molecules” (The Regents of the University of California, priority 2007, dated 2012).

SMILES strings stand for the structures.

T1 sequence (P05067 672-713 limits assumed): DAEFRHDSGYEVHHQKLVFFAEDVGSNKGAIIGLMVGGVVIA

The first series concerns MC65 cells. The series is described as follows: MC65 cell protection (cell viability) assay.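 Also: intraneuronal AβO toxicity triggered by withdrawing tetracycline, which suppresses the C99 transgene, MTT formazan viability read-out, with tetracycline-maintained cultures taken as 100%.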
Conditions: not given
Regarding `NC(=O)[C@H](Cc1ccc(O)c(O)c1)NC(=O)c1ccc2c(c1)nc(Nc1cccc(Br)c1)n2CCOc1ccccc1` [LRL 13, (S)—N-(1-amino-3-(3,4-dihydroxyphenyl)-1-oxopropan-2-yl)-2-(3-bromophenylamino)-1-(2-phenoxyethyl)-1H-benzo[d]imidazole-5-carboxamide, reference compound], the “protection of MC65 cells from death” value is “protect MC65 cells from death”.

As to `NC(=O)c1ccc2c(c1)nc(Nc1ccc(I)cc1)n2CCOc1ccccc1` [LRL 19, 2-(4-iodophenylamino)-1-(2-phenoxyethyl)-1H-benzo[d]imidazole-5-carboxamide, reference compound], the “protection of MC65 cells from death” value is reported as “protect MC65 cells from death”.

As to `Cc1c(C(N)=O)c(=O)oc2cc3c(cc12)nc(Nc1ccccc1Br)n3CCOc1ccccc1` [Compound C, 2-(2-Bromo-phenylamino)-8-methyl-6-oxo-3-(2-phenoxy-ethyl)-3,6-dihydro-chromeno[6,7-d]imidazole-7-carboxylic acid amide], the “protection of MC65 cells from death” value is “inactive”.

Still in this series, the particulars now being: MC65.
Take `COc1ccc(Nc2nc3cc4c(C)c(C(N)=O)c(=O)oc4cc3n2Cc2ccc(Cl)cc2)cc1` [D.23]: the EC50 (commonly the midpoint of the concentration-response curve) is below 1000 nM.

`COc1cccc(Nc2nc3cc4c(C)c(C(N)=O)c(=O)oc4cc3n2Cc2cccc(I)c2)c1` [D.17] showed a concentration giving a half-maximal response (EC50) below 1000 nM.

For `Cc1c(C(N)=O)c(=O)oc2cc3c(cc12)nc(Nc1ccc(OC(F)(F)F)cc1)n3Cc1ccc(Cl)cc1` [D.31], the EC50 was below 1000 nM.

For `Cc1c(C(N)=O)c(=O)oc2cc3c(cc12)nc(Nc1ccc(I)cc1)n3CCOc1ccccc1` [D.2], the EC50 is below 1000 nM.

For `COCCn1c(Nc2cccc(I)c2)nc2cc3c(C)c(C(N)=O)c(=O)oc3cc21` [D.6], the EC50 is above 10000 nM.

`Cc1c(C(N)=O)c(=O)oc2cc3c(cc12)nc(Nc1ccc(OC(F)(F)F)cc1)n3Cc1cccc(Br)c1` [D.29] yielded an EC50 below 1000 nM.

On to `COc1ccc(Nc2nc3cc4c(C)c(C(N)=O)c(=O)oc4cc3n2CCOc2ccccc2)cc1` [D.10], for which the EC50 was below 1000 nM.

As for `Cc1c(C(N)=O)c(=O)oc2cc3c(cc12)nc(Nc1cccc(I)c1)n3C` [D.11], the EC50 was in the range of 1000 to 10000 nM.

`Cc1c(C(N)=O)c(=O)oc2cc3c(cc12)nc(Nc1ccccc1Br)n3CCOc1ccccc1` [D.3] displayed an EC50 above 10000 nM.

The molecule `COc1ccc(Nc2nc3cc4c(C)c(C(N)=O)c(=O)oc4cc3n2Cc2cccc(I)c2)cc1` [D.16] registered an EC50 below 1000 nM.

Molecule `Cc1c(C(N)=O)c(=O)oc2cc3c(cc12)nc(Nc1ccc(OC(F)(F)F)cc1)n3Cc1ccc(Br)cc1` [D.32] displayed an EC50 below 1000 nM.

`COc1ccc(Nc2nc3cc4c(C)c(C(N)=O)c(=O)oc4cc3n2Cc2cccc(Br)c2)cc1` [D.20] came in with an EC50 below 1000 nM.

`COc1ccc(Nc2nc3cc4c(C)c(C(N)=O)c(=O)oc4cc3n2CCc2cccc(Cl)c2)cc1` [D.27] displayed an EC50 below 1000 nM.

On to `CCCn1c(Nc2cccc(I)c2)nc2cc3c(C)c(C(N)=O)c(=O)oc3cc21` [D.12], for which the half-maximal effective concentration (EC50) was below 1000 nM.

The molecule `Cc1c(C(N)=O)c(=O)oc2cc3c(cc12)nc(Nc1ccc(OC(F)(F)F)cc1)n3Cc1cccc(I)c1` [D.30] came in with an EC50 below 1000 nM.

In the case of `Cc1c(C(N)=O)c(=O)oc2cc3c(cc12)nc(Nc1cccc(I)c1)n3CC(F)F` [D.14], the EC50 lay in the range of 1000 to 10000 nM.

Molecule `COc1ccc(Nc2nc3cc4c(C)c(C(N)=O)c(=O)oc4cc3n2Cc2ccc(Br)cc2)cc1` [D.24] registered an EC50 below 1000 nM.

As to `Cc1c(C(N)=O)c(=O)oc2cc3c(cc12)nc(Nc1ccc(C#N)cc1)n3Cc1ccc(I)cc1` [D.35], the EC50 was below 1000 nM.

As to `Cc1c(C(N)=O)c(=O)oc2cc3c(cc12)nc(Nc1cccc(I)c1)n3CCc1ccc(Br)cc1` [D.8], the EC50 is below 1000 nM.

`COc1ccc(Nc2nc3cc4c(C)c(C(N)=O)c(=O)oc4cc3n2Cc2cccc(F)c2)cc1` [D.21] yielded an EC50 below 1000 nM.

`C#CCn1c(Nc2cccc(I)c2)nc2cc3c(C)c(C(N)=O)c(=O)oc3cc21` [D.4] displayed an EC50 of 1000 to 10000 nM.

As to `COc1ccc(Nc2nc3cc4c(C)c(C(N)=O)c(=O)oc4cc3n2Cc2cccc(Cl)c2)cc1` [D.22], the EC50 is below 1000 nM.

With `COc1ccc(Nc2nc3cc4c(C)c(C(N)=O)c(=O)oc4cc3n2CCc2ccc(Br)cc2)cc1` [D.26], the concentration giving a half-maximal response (EC50) is below 1000 nM.

`Cc1c(C(N)=O)c(=O)oc2cc3c(cc12)nc(Nc1cccc(I)c1)n3Cc1cccc(I)c1` [D.15]: the EC50 was below 1000 nM.

`COc1ccc(Nc2nc3cc4c(C)c(C(N)=O)c(=O)oc4cc3n2Cc2ccc(I)cc2)cc1` [D.25]: the EC50 is below 1000 nM.

As for `Cc1c(C(N)=O)c(=O)oc2cc3c(cc12)nc(Nc1ccc(C#N)cc1)n3Cc1ccc(Br)cc1` [D.34], the EC50 is below 1000 nM.

`Cc1c(C(N)=O)c(=O)oc2cc3c(cc12)nc(Nc1cccc(I)c1)n3CCOc1ccccc1` [D.9] had an EC50 below 1000 nM.

For the molecule `COc1ccc(Nc2nc3cc4c(C)c(C(N)=O)c(=O)oc4cc3n2-c2cccc(Br)c2)cc1` [D.33], the EC50 is above 10000 nM.

`Cc1c(C(N)=O)c(=O)oc2cc3c(cc12)nc(Nc1cccc(Br)c1)n3CCOc1ccccc1` [D.1] gave an EC50 below 1000 nM.

`Cc1c(C(N)=O)c(=O)oc2cc3c(cc12)nc(Nc1cccc(I)c1)n3CC1CC1` [D.13] showed an EC50 below 1000 nM.

For the molecule `COc1ccc(Nc2nc3cc4c(C)c(C(N)=O)c(=O)oc4cc3n2Cc2cccc(I)c2)c(OC)c1` [D.19], the EC50 was below 1000 nM.

Molecule `Cc1c(C(N)=O)c(=O)oc2cc3c(cc12)nc(Nc1ccc(OC(F)(F)F)cc1)n3Cc1cccc(Cl)c1` [D.28] showed an EC50 below 1000 nM.

Consider `CSc1cccc(Nc2nc3cc4c(C)c(C(N)=O)c(=O)oc4cc3n2Cc2cccc(I)c2)c1` [D.18], for which the EC50 is below 1000 nM.

`Cc1c(C(N)=O)c(=O)oc2cc3c(cc12)nc(Nc1cccc(I)c1)n3CCO` [D.5] returned an EC50 above 10000 nM.

For the molecule `COc1ccc(CCn2c(Nc3cccc(I)c3)nc3cc4c(C)c(C(N)=O)c(=O)oc4cc32)cc1` [D.7], the EC50 is below 1000 nM.

Another series has as its system SDS-stable AβO in MC65 cells. In words: SDS-PAGE and Western blot (6E10) of MC65 cell homogenates. In kind it is cell-based. Particulars: 1 μM, 24 hour cultures, 6E10 Western blot. An excerpt:
See, Maezawa et al. J Neurochem (2006) 98:57-67, which is incorporated herein by reference.
Consider `NC(=O)[C@H](Cc1ccc(O)c(O)c1)NC(=O)c1ccc2c(c1)nc(Nc1cccc(Br)c1)n2CCOc1ccccc1` [LRL 13, (S)—N-(1-amino-3-(3,4-dihydroxyphenyl)-1-oxopropan-2-yl)-2-(3-bromophenylamino)-1-(2-phenoxyethyl)-1H-benzo[d]imidazole-5-carboxamide, reference compound], for which the “levels of SDS-stable AβO” value is “decreased the levels of SDS-stable AβO”.

Consider `NC(=O)c1ccc2c(c1)nc(Nc1ccc(I)cc1)n2CCOc1ccccc1` [LRL 19, 2-(4-iodophenylamino)-1-(2-phenoxyethyl)-1H-benzo[d]imidazole-5-carboxamide, reference compound], for which the “levels of SDS-stable AβO” value is reported as “decreased the levels of SDS-stable AβO”.

Another series deals with AβO cytotoxicity. In words: Rapid MTT formazan exocytosis (MTT-FE) assay. Type of series: cell-based. Conditions: AβO:Compound 1:0 to 1:4, 1 hour, TS-/TI-MTT.
Experimental: In the rapid MTT formazan exocytosis (MTT-FE) assay, AβO was combined with LRL 03, LRL 15, Compound A or Congo Red (2.5 μM solution) at a ratio of 1:0, 1:1, 1:2 or 1:4 (AβO:Compound) and incubated for 1 hour, followed by measurement of the degree of formazan exocytosis. […] In particular, cellular MTT formazan was fractionated into the Triton soluble (TS) and insoluble (TI) MTT and quantified and shown in FIG. 7B.
In the case of `Nc1c(/N=N/c2ccc(-c3ccc(/N=N/c4cc(S(=O)(=O)O)c5ccccc5c4N)cc3)cc2)cc(S(=O)(=O)O)c2ccccc12` [Congo Red], the “neutralization of AβO cytotoxicity” value is reported as “able to neutralize AβO cytotoxicity”.

For another series, the system named is binding of AβO to synapses of cultured mouse hippocampal neurons. The series is described as follows: Synaptic binding assay. Type of series: cell-based. Particulars: 100 nM AβO: 1 μM compound, neurons 21 days in vitro. On the procedure:
The strong binding of AβO to synapses induces aberration in synapse composition, shape, and density, and was proposed as the molecular basis for the loss of connectivity in AD (see, Lacor, et al., J. Neurosci. (2007) 27:796-807). A synaptic binding assay was performed as described by Lacor et al. (2007), which is incorporated herein by reference, with minor modifications to test the effectiveness of a compound of Formula I (e.g., Compound A) to reduce or to prevent the binding of AβO to synapses. AβO prepared from the N-terminal biotinylated Aβ1-42 peptide was incubated either with 10 equivalents compounds (i.e., 100 nM AβO: 1 μM Compound A), or with DMSO (i.e., the solvent for the compounds used only as a negative control) for five minutes, then added to cultured mouse hippocampal neurons that had been cultured 21 days in vitro. After 5 minute incubation, the neurons were washed, fixed, and stained with streptavidin-Alexa594 for bound AβO. […] The density of puncta per unit dendritic area was quantified using the Image J program and the resulting bar graph is presented in the far right panel.
In the case of `Nc1c(/N=N/c2ccc(-c3ccc(/N=N/c4cc(S(=O)(=O)O)c5ccccc5c4N)cc3)cc2)cc(S(=O)(=O)O)c2ccccc12` [Congo Red], the “fluorescent puncta (AβO bound to synapses)” value was “substantially reduced number of puncta”.

A further series has as its target T1, AβO (Homo sapiens, UniProt P05067).
T1 construct: prepared by mixing a 1:10 ratio of biotinylated and unbiotinylated Aβ1-42 peptide
In words: Electron microscopy (EM) of AβO size. Type of series: biochemical. Particulars: 24 hour incubation at 25° C. The procedure:
To address the possible alternative explanation that the depolymerization effect observed for Compound A in the AFM experiment is due to Compound A altered binding of AβO to the AFM mica, the effect of Compound A and Compound B and Congo Red on AβO size was further analyzed by electron microscopy (EM) (see FIG. 5A and FIG. 5B). […] The representative electron micrographs presented in FIG. 5A show the size of the AβO aggregates after incubation with either Compound A, Compound B or Congo Red. FIG. 5B contains a histogram, which illustrates the size distribution of AβO without treatment or with treatment with Compound A, Compound B or Congo Red. It is apparent from EM images in FIG. 5A and in the histograms shown in FIG. 5B that after 24 hour incubation at 25° C. and in the absence of treatment with Compound A or Congo Red, AβO grew in size.
In the case of `Nc1c(/N=N/c2ccc(-c3ccc(/N=N/c4cc(S(=O)(=O)O)c5ccccc5c4N)cc3)cc2)cc(S(=O)(=O)O)c2ccccc12` [Congo Red], the “effect on number and size of AβO” value was “reduction in the number and size of AβO”.
